Common to all, as to assay type: functional
Assay [1] concerns Staphylococcus aureus. Kind of assay: Antibacterial activity against methicillin resistant Staphylococcus aureus incubated for 20 hrs by broth microdilution method. Background: Broth dilution looks for growth in wells or tubes with falling amounts of substance.
Another assay deals with Trichophyton rubrum. As to the kind of experiment: Antifungal activity against Trichophyton rubrum assessed as reduction in fungal growth incubated for 5 to 7 days by NCCLS based assay. The note with it: time 5-7 day.
In the next assay the test system is Nannizzia gypsea. Kind of assay: Antifungal activity against Microsporum gypseum assessed as reduction in fungal growth incubated for 5 to 7 days by NCCLS based assay. The conditions noted are these: time 5-7 day.
The next assay has as its system Nakaseomyces glabratus. Kind of assay: Antifungal activity against Candida glabrata 537 assessed as reduction in fungal growth incubated for 72 hrs by NCCLS based assay.
The subject of a further assay is Aspergillus fumigatus. Kind of assay: Antifungal activity against Aspergillus fumigatus 7544 assessed as reduction in fungal growth incubated for 5 to 7 days by NCCLS based assay. The conditions noted are these: time 5-7 day.
Assay [2] deals with Candida albicans. Kind of assay: Antifungal activity against Candida albicans SC5314 assessed as reduction in fungal growth incubated for 24 hrs by NCCLS based assay.
The subject of assay [3] is Cryptococcus neoformans. As to the kind of experiment: Antifungal activity against Cryptococcus neoformans 32609 assessed as reduction in fungal growth incubated for 72 hrs by NCCLS based assay.
Assay [4] relates to Candida albicans. As to the kind of experiment: Antifungal activity against Candida albicans Y0109 assessed as reduction in fungal growth incubated for 24 hrs by NCCLS based assay.
In assay [5] the test system is Staphylococcus aureus. As to the kind of experiment: Antibacterial activity against Staphylococcus aureus assessed as diameter of inhibition zone.
The subject of assay [6] is Candida albicans. As to the kind of experiment: Antifungal activity against Candida albicans ATCC 90028 assessed as growth inhibition incubated for 24 hrs.
Assay [7] concerns Bacillus subtilis. Kind of assay: Antibacterial activity against Bacillus subtilis MTCC 441 assessed as reduction in bacterial growth.
The next assay relates to Pseudomonas aeruginosa. Kind of assay: Antibacterial activity against Pseudomonas aeruginosa MTCC 1034 assessed as reduction in bacterial growth.
Assay [8] deals with Staphylococcus aureus. As to the kind of experiment: Antibacterial activity against Staphylococcus aureus assessed as diameter of inhibition zone incubated for 24 hrs by well diffusion assay. In general terms: A growth-free zone around the sample is the usual read-out of agar diffusion tests.
Another assay concerns Geotrichum candidum. Kind of assay: Antifungal activity against Geotrichum candidum RCMB 052006 assessed as diameter of inhibition zone incubated for 24 hrs by well diffusion assay.
Another assay relates to Proteus vulgaris. As to the kind of experiment: Antibacterial activity against Proteus vulgaris RCMB 004 assessed as diameter of inhibition zone incubated for 24 hrs by well diffusion assay.
A further assay has as its system Aspergillus flavus. As to the kind of experiment: Antifungal activity against Aspergillus flavus assessed as diameter of inhibition zone incubated for 24 hrs by well diffusion assay.
For the next assay, the system named is Escherichia coli. As to the kind of experiment: Antibacterial activity against Escherichia coli RCMB 010052 assessed as diameter of inhibition zone incubated for 24 hrs by well diffusion assay.
Assay [9] deals with Bacillus subtilis. Kind of assay: Antibacterial activity against Bacillus subtilis RCMB 010069 assessed as diameter of inhibition zone incubated for 24 hrs by well diffusion assay.
In assay [10] the test system is Candida albicans. Kind of assay: Antifungal activity against Candida albicans assessed as fungal growth inhibition by CLSI based method.
In assay [11] the test system is Cryptococcus neoformans. As to the kind of experiment: Antifungal activity against Cryptococcus neoformans assessed as fungal growth inhibition by CLSI based method.
A further assay concerns Aspergillus niger. Kind of assay: Antifungal activity against Aspergillus niger assessed as fungal growth inhibition.

Each structure is given as a SMILES string. Values after ≈ are worked out from the molar mass of the structure shown.

`COc1cc(/C=C/c2ccc(OCc3cn(-c4ccc(C(=O)O)cc4)nn3)cc2)cc(OC)c1`: in the assay on Staphylococcus aureus [1], the MIC (as a rule, the least concentration at which growth counts as inhibited) is 1.2 µg/mL (≈ 2.62 µM).
With `C[C@@H](OCc1cc(-c2c(F)cc(F)cc2F)no1)[C@](O)(Cn1cncn1)c1ccc(F)cc1F`, the MIC80 (commonly the lowest concentration that inhibits either 80% of growth or 80% of the strains tested, depending on the study) in the assay with Trichophyton rubrum was found to be 2 µg/mL (≈ 4.16 µM); with Nannizzia gypsea, 1 µg/mL (≈ 2.08 µM); in the assay with Nakaseomyces glabratus it was 0.125 µg/mL (≈ 0.26 µM); in the assay on Aspergillus fumigatus, 4 µg/mL (≈ 8.33 µM); with Candida albicans [2], 0.125 µg/mL (≈ 0.26 µM); with Cryptococcus neoformans [3], 1 µg/mL (≈ 2.08 µM). In addition, the MIC80 with Candida albicans [4] turned out to be 0.062 µg/mL (≈ 0.129 µM).
As to `C[C@@H](OCc1cc(-c2cccc(F)c2F)no1)[C@](O)(Cn1cncn1)c1ccc(F)cc1F`, the MIC80 with Trichophyton rubrum is 2 µg/mL (≈ 4.33 µM); in the assay with Nannizzia gypsea, 1 µg/mL (≈ 2.16 µM); in the assay with Nakaseomyces glabratus, 0.5 µg/mL (≈ 1.08 µM); in the assay on Aspergillus fumigatus it was 8 µg/mL (≈ 17.3 µM); with Candida albicans [2], 0.5 µg/mL (≈ 1.08 µM); in the assay with Cryptococcus neoformans [3] it was 1 µg/mL (≈ 2.16 µM). Moreover, the MIC80 in the assay with Candida albicans [4] is 0.25 µg/mL (≈ 0.541 µM).
Take `Cc1ccc(-c2cc(CO[C@H](C)[C@](O)(Cn3cncn3)c3ccc(F)cc3F)on2)cc1`: the MIC80 in the assay on Trichophyton rubrum stood at 4 µg/mL (≈ 9.08 µM); with Nannizzia gypsea it was 2 µg/mL (≈ 4.54 µM); in the assay on Nakaseomyces glabratus, 0.5 µg/mL (≈ 1.14 µM); in the assay on Aspergillus fumigatus, 8 µg/mL (≈ 18.2 µM); in the assay on Candida albicans [2] it was 0.25 µg/mL (≈ 0.568 µM); in the assay with Cryptococcus neoformans [3] it was 2 µg/mL (≈ 4.54 µM). For the same compound, in the assay with Candida albicans [4], the MIC80 is 0.125 µg/mL (≈ 0.284 µM).
Take `Cc1ccccc1-c1cc(CO[C@H](C)[C@](O)(Cn2cncn2)c2ccc(F)cc2F)on1`: the MIC80 stood at 4 µg/mL (≈ 9.08 µM) in the assay with Trichophyton rubrum; 2 µg/mL (≈ 4.54 µM) in the assay on Nannizzia gypsea; 0.25 µg/mL (≈ 0.568 µM) with Nakaseomyces glabratus; 4 µg/mL (≈ 9.08 µM) in the assay with Aspergillus fumigatus; 0.125 µg/mL (≈ 0.284 µM) in the assay with Candida albicans [2]; 1 µg/mL (≈ 2.27 µM) in the assay on Cryptococcus neoformans [3]. In addition, in the assay with Candida albicans [4], the MIC80 was 0.031 µg/mL (≈ 0.0704 µM).
As for `CCOc1cccc(-n2cc(C(C)N3C(=O)C(=O)c4ccccc43)nn2)c1` (stereo not drawn), the “diameter of the inhibition zone (DIZ)” value in the assay on Staphylococcus aureus [5] was 10 mm.
Take `CCCNC(=O)c1nnn(-c2ccc(Br)cc2)c1C`: the “growth inhibition (GI)” value in the assay on Candida albicans [6] worked out at 13.2%.
Regarding `C=CCCC1CC(=O)N1Cc1cn(-c2ccc(Cl)cc2)nn1` (stereo not drawn), the MIC with Bacillus subtilis [7] and in the assay with Pseudomonas aeruginosa was 1.25 µg/mL (≈ 3.95 µM) throughout.
As for `Cc1c(-c2cc(-c3ccccn3)nc(S)n2)nnn1-c1ccc(-n2nnc(-c3cc(-c4ccccn4)nc(S)n3)c2C)cc1`, the “diameter of the inhibition zone (DIZ)” value with Staphylococcus aureus [8] came to 23.3 mm; in the assay on Geotrichum candidum, 26.3 mm; with Proteus vulgaris, 23.3 mm; in the assay with Aspergillus flavus, 24.02 mm; in the assay on Escherichia coli it was 35.2 mm; with Bacillus subtilis [9], 36.2 mm.
`COc1cc(/C=C/c2ccc(OCc3cn(CCCCCC(=O)O)nn3)cc2)cc(OC)c1` showed a minimal inhibitory concentration (MIC) against Staphylococcus aureus [1] of 78.1 µg/mL (≈ 173 µM).
`CCCCNC(=O)c1nnn(-c2ccc(Br)cc2)c1C`: the “growth inhibition (GI)” value in the assay on Candida albicans [6] is 63.7%.
In turn, `COc1cc(/C=C/c2ccc(OCc3cn(Cc4ccc(C(=O)O)cc4)nn3)cc2)cc(OC)c1` gave an MIC against Staphylococcus aureus [1] of 312 µg/mL (≈ 663 µM).
Take `O=C(c1ccc(Cl)cc1)C(C(c1ccccc1)c1ccccc1)n1cncn1` (stereo not drawn): the MIC in the assay with Candida albicans [10] and with Cryptococcus neoformans [11] was 0.5 µg/mL (≈ 1.29 µM) throughout.
In the case of `Cc1c(C(=O)/C=C/c2ccncc2)nnn1-c1ccc(-n2nnc(C(=O)/C=C/c3ccncc3)c2C)cc1`, the “diameter of the inhibition zone (DIZ)” value in the assay on Staphylococcus aureus [8] is on record as 19.2 mm; in the assay with Geotrichum candidum, 21.3 mm; in the assay on Proteus vulgaris it was 17.3 mm; in the assay with Aspergillus flavus, 18.43 mm; with Escherichia coli it was 26.3 mm; with Bacillus subtilis [9] it was 28.2 mm.
As for `Cc1c(-c2cc(-c3c[nH]c4ccccc34)nc(NN)n2)nnn1-c1ccc(-n2nnc(-c3cc(-c4c[nH]c5ccccc45)nc(NN)n3)c2C)cc1`, the “diameter of the inhibition zone (DIZ)” value is 20.9 mm in the assay on Staphylococcus aureus [8]; 24.4 mm with Geotrichum candidum; 26.9 mm in the assay with Proteus vulgaris; 21.3 mm with Aspergillus flavus; 33.9 mm in the assay with Escherichia coli; 41.3 mm with Bacillus subtilis [9].
With `C[C@@H](OCc1cc(-c2ccc(F)cc2)no1)[C@](O)(Cn1cncn1)c1ccc(F)cc1F`, the MIC80 came out at 1 µg/mL (≈ 2.25 µM) in the assay on Trichophyton rubrum; 0.5 µg/mL (≈ 1.13 µM) in the assay with Nannizzia gypsea; 0.125 µg/mL (≈ 0.281 µM) in the assay on Nakaseomyces glabratus; 4 µg/mL (≈ 9 µM) with Aspergillus fumigatus; 0.031 µg/mL (≈ 0.0698 µM) in the assay on Candida albicans [2]; 0.5 µg/mL (≈ 1.13 µM) in the assay with Cryptococcus neoformans [3]. Also, in the assay on Candida albicans [4], the MIC80 is 0.031 µg/mL (≈ 0.0698 µM).
For `O=C(c1ccc(Br)cc1)C(Cc1ccccc1)n1cncn1` (stereo not drawn), the minimum inhibitory concentration (MIC) with Candida albicans [10] and with Cryptococcus neoformans [11] was 0.5 µg/mL (≈ 1.4 µM) throughout.
On to `O=C(c1ccc(F)cc1)C(C(c1ccccc1)c1ccccc1)n1cncn1` (stereo not drawn), for which the MIC in the assay with Candida albicans [10] and in the assay on Cryptococcus neoformans [11] was 0.5 µg/mL (≈ 1.35 µM) each time.
For the compound `CCCCCCCCCCCCCCCc1nnc(S)n1/N=C\c1ccc([N+](=O)[O-])cc1`, the MIC in the assay on Aspergillus niger was 27.1 µg/mL (≈ 59 µM).

The record behind these values is ChEMBL document CHEMBL5634077, “Recent advances in 1,2,3- and 1,2,4-triazole hybrids as antimicrobials and their SAR: A critical review” (2023).
